In paper PMC4916434, “Evaluation of the inhibition potential of plumbagin against cytochrome P450 using LC-MS/MS and cocktail approach” (Scientific Reports, 2016):

What was measured:
Assay type in all cases: in vitro ADME
[1] = target: T1, CYP2E1 (Rattus norvegicus, UniProt P05182); assay: biochemical
T1 construct: consisting of pooled HLMs (0.5 mg/ml) or RLMs (1 mg/ml) and an NADPH-regenerating system; from tissue; host or cells: rat liver microsomes prepared in house
Procedure: (§1) In this study, the rats were fasted overnight and killed by cervical dislocation before removal of the liver. The liver was excised, rinsed with ice-cold saline (0.9% NaCl w/v), weighed and homogenized in a […] Tris/KCl buffer (pH 7.4). Subsequently, the homogenate was centrifuged at 10,000 × g at 4 °C for 30 min. The supernatant was then centrifuged at 105,000 × g at 4 °C for 60 min. The pellet was reconstituted with […] Tris/KCl buffer (pH 7.4) and stored at −150 °C until use. The protein concentration of the liver microsomes was determined by a protein quantitative assay using bicinchoninic acid[22].
(§2) Microsomal incubation was carried out at 37 °C in a mixture of 200 μl in 0.05 M Tris/HCl buffer (pH 7.4) consisting of pooled HLMs (0.5 mg/ml) or RLMs (1 mg/ml) and an NADPH-regenerating system including MgCl2 (5 mM), G6P (10 mM), G6PDH (0.4 U/ml) and NADP (1 mM). Substrates were added into the incubation mixture and obtained the final concentrations (10 μM phenacetin for CYP1A2, 20 μM bupropion for CYP2B1/6, 20 μM tolbutamide for CYP2C9/11, 5 μM dextromethorphan for CYP2D1/6, 20 μM chlorzoxazone for CYP2E1 and 10 μM midazolam for CYP3A2/4), which were close to Km respectively. The proportion of organic solvent was not higher than 1% (v/v) in the incubation mixture. After pre-incubation for 5 min, the reaction was initiated by addition of NADP. Incubations were performed for 20 min, stopped by adding 200 μl ice-cold acetonitrile. And then 20 μl internal standard solution was added (3-acetamidophenol 2 μg/ml, chlorpropamide 2 μg/ml and mebendazole 2 μg/ml). The solution was mixed thoroughly for 3 min and centrifuged for 10 min at 16,000 × g at 4 °C. The supernatant (60 μl) was transferred to autosampler vials, and 2 μl was injected into LC-MS/MS system.
The IC50 (concentration of inhibitor to cause 50% inhibition of original enzyme activity) values were determined with the same incubation condition above. The specific concentrations of plumbagin were ranged from 0.1 μM to 50 μM. […]
All data were presented as mean ± SD. […] All results were analyzed in quadruplicate. […]

[2] = target: T2, CYP2E1 (Homo sapiens, UniProt P05181); assay: CYP2E1 inhibition (chlorzoxazone 6-hydroxylation) in pooled human liver microsomes, cocktail LC-MS/MS
T2 construct: consisting of pooled HLMs (0.5 mg/ml) or RLMs (1 mg/ml) and an NADPH-regenerating system; tissue Corning Gentest Corporation; host or cells: pooled human liver microsomes (n = 20)
T2 sequence (P05181 whole entry): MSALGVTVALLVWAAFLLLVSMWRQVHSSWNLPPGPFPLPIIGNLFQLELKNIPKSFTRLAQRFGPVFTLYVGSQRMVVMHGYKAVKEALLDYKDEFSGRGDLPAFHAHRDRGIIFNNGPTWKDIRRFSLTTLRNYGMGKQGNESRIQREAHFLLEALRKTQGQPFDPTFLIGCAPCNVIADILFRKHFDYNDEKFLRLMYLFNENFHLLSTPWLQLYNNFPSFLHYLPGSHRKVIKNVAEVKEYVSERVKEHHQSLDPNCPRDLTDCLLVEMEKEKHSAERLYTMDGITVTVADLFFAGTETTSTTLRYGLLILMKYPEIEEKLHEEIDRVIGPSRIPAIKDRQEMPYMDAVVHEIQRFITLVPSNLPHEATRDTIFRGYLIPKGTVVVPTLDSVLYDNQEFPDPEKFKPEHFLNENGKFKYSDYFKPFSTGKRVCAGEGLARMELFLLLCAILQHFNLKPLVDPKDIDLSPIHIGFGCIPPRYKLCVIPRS
Procedure: as §2
(§3) The IC50 (concentration of inhibitor to cause 50% inhibition of original enzyme activity) values were determined with the same incubation condition above. The specific concentrations of plumbagin were ranged from 0.1 μM to 50 μM. The IC50 values were calculated by plotting relative activities over the logarithm of plumbagin concentrations using GraphPad Prism 5.0 (GraphPad software Inc., CA, USA).
(§4) Cocktail probe substrates were then added and incubated for 20 min. Reactions were stopped with 200 μl ice-cold acetonitrile. The samples were treated according to the microsomal incubation method and then injected into LC-MS/MS for analysis.
(§5) Kinetic studies were performed for determining the types of inhibition on CYP by plumbagin. Pooled HLMs (0.5 mg/ml) or RLMs (1 mg/ml) with plumbagin (1 μM, 2 μM, 5 μM and 10 μM) were incubated in 0.05 M Tris/HCl buffer (pH 7.4) for 20 min at 37 °C. A series of concentrations for cocktail probe substrates were used: 2.5–20 μM phenacetin for CYP1A2; 5–40 μM bupropion for CYP2B1/6; 5–40 μM tolbutamide for CYP2C9/11; 1.25–10 μM dextromethorphan for CYP2D1/6; 5–40 μM chlorzoxazone for CYP2E1; 2.5–80 μM midazolam for CYP3A2; and 0.625–5 μM midazolam for CYP3A4. Enzyme kinetics as well as statistical analysis were performed using GraphPad Prism 5.0.
(§6) All data were presented as mean ± SD. The IC50 values were fitted by non-linear regression analysis using GraphPad Prism 5.0. The kinetic parameters were obtained by fitting velocity data to kinetic models (Michaelis-Menten) using GraphPad Prism 5.0. The Lineweaver-Burk Plot (the reciprocal of reaction velocities versus the reciprocal of substrates concentrations) was used to determine the quality of fit to a specific inhibition model. The inhibition constant (Ki) was obtained by a secondary plot using the slopes of the primary Lineweaver-Burk Plot (Km/Vmax versus inhibitor concentrations). αKi was obtained from a secondary plot using the y-intercepts of the Lineweaver-Burk plot (1/Vmax versus inhibitor concentrations). All results were analyzed in quadruplicate. One-way analysis of variance was used to estimate the significance of differences. There was statistical significance between control and test groups if p < 0.05.

[3] = target: T3, CYP1A2 (Rattus norvegicus, UniProt P04799); assay: CYP1A2 inhibition (phenacetin O-deethylation) in rat liver microsomes, cocktail LC-MS/MS
T3 construct: consisting of pooled HLMs (0.5 mg/ml) or RLMs (1 mg/ml) and an NADPH-regenerating system; from tissue; host or cells: rat liver microsomes prepared in house
T3 sequence (P04799 1-513): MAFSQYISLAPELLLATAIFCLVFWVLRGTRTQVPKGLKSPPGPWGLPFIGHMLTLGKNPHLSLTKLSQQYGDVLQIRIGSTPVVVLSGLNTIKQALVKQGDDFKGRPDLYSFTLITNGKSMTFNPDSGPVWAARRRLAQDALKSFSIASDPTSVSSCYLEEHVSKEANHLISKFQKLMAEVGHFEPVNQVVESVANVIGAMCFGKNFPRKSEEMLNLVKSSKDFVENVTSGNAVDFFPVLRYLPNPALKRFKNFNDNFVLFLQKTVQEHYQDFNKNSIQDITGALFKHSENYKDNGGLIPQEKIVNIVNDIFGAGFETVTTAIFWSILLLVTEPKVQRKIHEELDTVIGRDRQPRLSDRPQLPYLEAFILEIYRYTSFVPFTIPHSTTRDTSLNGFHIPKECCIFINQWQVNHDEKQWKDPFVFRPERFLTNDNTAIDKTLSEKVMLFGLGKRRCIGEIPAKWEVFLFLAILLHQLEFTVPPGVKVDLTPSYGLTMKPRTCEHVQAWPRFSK
Procedure: as §1, §2, §3, §4, §5
as §6, with “There was statistical significance between control and test groups if p < 0.05.” left out

T1 sequence (P05182 whole entry): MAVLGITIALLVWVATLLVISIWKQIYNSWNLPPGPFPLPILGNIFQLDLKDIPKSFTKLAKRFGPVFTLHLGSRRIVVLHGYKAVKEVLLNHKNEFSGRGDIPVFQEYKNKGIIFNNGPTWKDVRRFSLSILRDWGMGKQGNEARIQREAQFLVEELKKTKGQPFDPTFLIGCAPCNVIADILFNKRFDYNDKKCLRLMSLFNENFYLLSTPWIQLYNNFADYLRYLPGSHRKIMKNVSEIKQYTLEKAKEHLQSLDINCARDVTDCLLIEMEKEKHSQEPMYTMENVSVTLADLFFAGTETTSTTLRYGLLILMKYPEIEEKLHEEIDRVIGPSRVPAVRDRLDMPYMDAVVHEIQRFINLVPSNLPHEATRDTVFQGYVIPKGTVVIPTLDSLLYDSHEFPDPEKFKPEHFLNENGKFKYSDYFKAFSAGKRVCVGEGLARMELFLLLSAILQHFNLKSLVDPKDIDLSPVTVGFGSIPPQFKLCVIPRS

With CC1=CC(=O)c2c(O)cccc2C1=O [plumbagin, 5-hydroxy-2-methyl-1,4-naphthoquinone] as the molecule, how does the IC50 [1] read?
Its IC50 is 3.72 µM.

What about the Ki [1] of the same molecule?
The Ki was 6.28 µM.

And the Type of inhibition [1]?
The Type of inhibition was “competitive”.

And the IC50 [2]?
The IC50 was 6.54 µM.

And the Ki [2]?
The Ki was 0.65 µM.

What about the Type of inhibition [2] of the same molecule?
The Type of inhibition was “mixed-type”.

And the αKi ([2]; HLMs, secondary plot of y-intercepts, chlorzoxazone 5-40 μM)?
Its αKi is 2.64 µM.

And the α ([2]; human, 20 min, pH 7.4)?
Its α is 0.25.

What about the IC50 [3] of the same molecule?
Its IC50 is 2.65 µM.

And the Ki [3]?
Its Ki is 2.64 µM.

And the α ([3]; RLMs)?
Its α is 0.31.

What about the Type of inhibition ([3]; RLMs, Lineweaver-Burk) of the same molecule?
Its Type of inhibition is “mixed-type”.

And the Time-dependent inhibition ([3]; RLMs, pre-incubation with NADPH 0, 5, 10, 20 min, plumbagin 0.2, 0.5, 1 μM)?
The Time-dependent inhibition was “no time-dependent inhibition”.

And the αKi ([3]; RLMs, secondary plot of y-intercepts, phenacetin 2.5-20 μM)?
Its αKi is 8.51 µM.
